Experimental data as given in patent publication US12723063B2, “GIPR-agonist compounds” (Eli Lilly and Company, priority 2019, dated 2026).
*1 amine or outer side, *2 acyl side, *3 side chain or, on linkers, in order; H or OH if unused. Where a SMILES comes first, the peptide text is derived from it. Side-chain parts run from the residue outwards. [ ]: non-standard residue; d: D form. The star is where a group is joined. C20 diacid = O=C(O)CCCCCCCCCCCCCCCCCCC(=O)*; αMePhe(2-F) = C[C@](N)(Cc1ccccc1F)C(=O)O; γGlu = O=C(O)[C@H](CCC(=O)[*:2])N[*:1]; 4Pal = N[C@@H](Cc1ccncc1)C(=O)O; AEEA = NCCOCCOCC(=O)O; Aib = CC(C)(N)C(=O)O

Assays:
Assay in all cases: cAMP functional assay (HTRF) in HEK293 cells in presence of 0.1% casein
Format in all cases: cell-based
[1] = target: T1, human glucagon receptor (GcgR) (Homo sapiens, UniProt P47871); details: HEK293 cells expressing human GcgR, geometric mean, read-out: hGcgR cAMP Rel EC50 nM (SEM, n)
T1 construct: expressed in transfected cells; host or cells: HEK293

[2] = target: T2, human glucose-dependent insulinotropic peptide receptor (GIPR) (Homo sapiens, UniProt P48546); details: HEK293 cells expressing human GIPR, geometric mean, read-out: hGIPR cAMP Rel EC50 nM (SEM, n)
T2 construct: expressed in transfected cells; host or cells: HEK293
T2 sequence (P48546 22-466): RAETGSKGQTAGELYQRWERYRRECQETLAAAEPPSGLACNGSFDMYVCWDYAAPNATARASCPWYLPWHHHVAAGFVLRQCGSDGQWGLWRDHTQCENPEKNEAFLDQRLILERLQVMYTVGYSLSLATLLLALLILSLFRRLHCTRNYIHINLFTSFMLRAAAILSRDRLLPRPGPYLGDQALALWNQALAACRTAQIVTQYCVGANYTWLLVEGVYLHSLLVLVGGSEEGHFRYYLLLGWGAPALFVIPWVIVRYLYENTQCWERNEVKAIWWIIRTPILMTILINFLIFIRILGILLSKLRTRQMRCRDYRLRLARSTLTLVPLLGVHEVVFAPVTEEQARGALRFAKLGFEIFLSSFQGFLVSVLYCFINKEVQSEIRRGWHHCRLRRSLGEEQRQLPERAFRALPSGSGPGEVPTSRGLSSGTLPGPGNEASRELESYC

[3] = target: T3, human GLP-1 receptor (GLP-1R) (Homo sapiens, UniProt P43220); details: HEK293 cells expressing human GLP-1R, geometric mean, read-out: hGLP1R cAMP Rel EC50 nM (SEM, n)
T3 construct: expressed in transfected cells; host or cells: HEK293
T3 sequence (P43220 24-463): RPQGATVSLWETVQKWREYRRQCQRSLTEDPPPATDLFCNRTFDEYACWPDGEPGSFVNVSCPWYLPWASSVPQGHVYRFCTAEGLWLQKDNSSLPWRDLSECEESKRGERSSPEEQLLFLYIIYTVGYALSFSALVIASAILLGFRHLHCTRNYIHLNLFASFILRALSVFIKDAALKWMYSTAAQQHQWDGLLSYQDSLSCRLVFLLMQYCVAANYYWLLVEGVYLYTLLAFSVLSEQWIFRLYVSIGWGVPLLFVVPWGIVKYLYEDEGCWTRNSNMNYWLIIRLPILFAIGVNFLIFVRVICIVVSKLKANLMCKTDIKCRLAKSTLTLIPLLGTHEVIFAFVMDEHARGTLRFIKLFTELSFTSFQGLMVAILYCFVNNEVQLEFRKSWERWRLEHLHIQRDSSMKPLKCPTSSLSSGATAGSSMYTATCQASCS

T1 sequence (P47871 26-477): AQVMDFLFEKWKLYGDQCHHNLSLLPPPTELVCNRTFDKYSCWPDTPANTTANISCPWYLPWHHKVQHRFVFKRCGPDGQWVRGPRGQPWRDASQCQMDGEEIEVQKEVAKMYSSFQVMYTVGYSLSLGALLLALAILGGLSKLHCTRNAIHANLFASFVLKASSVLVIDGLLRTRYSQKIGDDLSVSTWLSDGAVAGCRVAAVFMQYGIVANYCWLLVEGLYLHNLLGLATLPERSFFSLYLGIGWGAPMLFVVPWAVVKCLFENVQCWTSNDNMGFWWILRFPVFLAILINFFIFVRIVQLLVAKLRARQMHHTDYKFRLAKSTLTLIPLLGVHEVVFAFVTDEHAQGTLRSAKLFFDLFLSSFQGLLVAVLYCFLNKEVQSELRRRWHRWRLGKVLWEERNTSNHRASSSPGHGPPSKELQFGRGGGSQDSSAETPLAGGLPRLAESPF

In the case of `CC[C@H](C)[C@H](NC(=O)[C@H](Cc1ccccc1)NC(=O)[C@@H](NC(=O)CNC(=O)[C@H](CCC(=O)O)NC(=O)C(C)(C)NC(=O)[C@@H](N)Cc1ccc(O)cc1)[C@@H](C)O)C(=O)N[C@@H](CO)C(=O)N[C@@H](CC(=O)O)C(=O)N[C@@H](Cc1ccc(O)cc1)C(=O)N[C@@H](CO)C(=O)N[C@H](C(=O)N[C@@](C)(CC(C)C)C(=O)N[C@@H](CC(C)C)C(=O)N[C@@H](CC(=O)O)C(=O)N[C@@H](CCCCN)C(=O)N[C@@H](CCCCNC(=O)COCCOCCNC(=O)COCCOCCNC(=O)CC[C@H](NC(=O)CCCCCCCCCCCCCCCCC(=O)O)C(=O)O)C(=O)N[C@@H](Cc1c[nH]cn1)C(=O)N[C@@H](CCC(N)=O)C(=O)NC(C)(C)C(=O)N[C@@H](CC(=O)O)C(=O)N[C@@H](Cc1ccccc1)C(=O)N[C@H](C(=O)N[C@@H](CCC(=O)O)C(=O)N[C@@H](Cc1ccncc1)C(=O)N[C@@H](CC(C)C)C(=O)N[C@@H](CC(C)C)C(=O)N[C@@H](C)C(=O)NCC(=O)NCC(=O)N1CCC[C@H]1C(=O)N[C@@H](CO)C(=O)N[C@@H](CO)C(=O)NCC(=O)N[C@@H](C)C(=O)N1CCC[C@H]1C(=O)N1CCC[C@H]1C(=O)N1CCC[C@H]1C(=O)N[C@@H](CO)C(N)=O)C(C)C)[C@@H](C)CC` [Example 49], the EC50 [1] was 2860 nM, the EC50 [2] was 0.0156 nM and the EC50 [3] was over 5000 nM.

In the case of `CC[C@H](C)[C@H](NC(=O)[C@H](CO)NC(=O)[C@H](Cc1ccc(O)cc1)NC(=O)[C@H](CC(=O)O)NC(=O)[C@H](CO)NC(=O)[C@@H](NC(=O)[C@](C)(Cc1ccccc1F)NC(=O)[C@@H](NC(=O)CNC(=O)[C@H](CCC(=O)O)NC(=O)C(C)(C)NC(=O)[C@@H](N)Cc1ccc(O)cc1)[C@@H](C)O)[C@@H](C)CC)C(=O)N[C@@H](C)C(=O)N[C@@H](CC(C)C)C(=O)N[C@@H](CC(=O)O)C(=O)N[C@@H](CCCCN)C(=O)N[C@@H](CCCCNC(=O)COCCOCCNC(=O)COCCOCCNC(=O)CC[C@H](NC(=O)CCCCCCCCCCCCCCCCCCC(=O)O)C(=O)O)C(=O)N[C@@H](Cc1c[nH]cn1)C(=O)N[C@@H](CCC(N)=O)C(=O)NC(C)(C)C(=O)N[C@@H](CC(=O)O)C(=O)N[C@@H](Cc1ccccc1)C(=O)N[C@H](C(=O)N[C@@H](CCC(=O)O)C(=O)N[C@@H](Cc1c[nH]c2ccccc12)C(=O)N[C@@H](CC(C)C)C(=O)N[C@@H](CC(C)C)C(=O)N[C@@H](CCC(=O)O)C(=O)N[C@H](C(=O)NCC(=O)N1CCC[C@H]1C(=O)N[C@@H](CO)C(=O)N[C@@H](CO)C(=O)NCC(=O)N[C@@H](C)C(=O)N1CCC[C@H]1C(=O)N1CCC[C@H]1C(=O)N1CCC[C@H]1C(=O)N[C@@H](CO)C(N)=O)[C@@H](C)O)C(C)C` [Example 40] (H-Y[Aib]EGT[αMePhe(2-F)]ISDYSIALDKK([AEEA-AEEA-γGlu-C20 diacid])HQ[Aib]DFVEWLLETGPSSGAPPPS-NH2), the EC50 [1] was over 5000 nM, the EC50 [2] was 0.033 nM and the EC50 [3] was 2330 nM.

Work on `CC[C@H](C)[C@H](NC(=O)[C@H](Cc1ccccc1)NC(=O)[C@@H](NC(=O)CNC(=O)[C@H](CCC(=O)O)NC(=O)C(C)(C)NC(=O)[C@@H](N)Cc1ccc(O)cc1)[C@@H](C)O)C(=O)N[C@@H](CO)C(=O)N[C@@H](CC(=O)O)C(=O)N[C@@H](Cc1ccc(O)cc1)C(=O)N[C@@H](CO)C(=O)N[C@H](C(=O)N[C@@](C)(CC(C)C)C(=O)N[C@@H](CC(C)C)C(=O)N[C@@H](CC(=O)O)C(=O)N[C@@H](CCCCN)C(=O)N[C@@H](CCCCNC(=O)COCCOCCNC(=O)COCCOCCNC(=O)CC[C@H](NC(=O)CCCCCCCCCCCCCCCCCCC(=O)O)C(=O)O)C(=O)N[C@@H](Cc1c[nH]cn1)C(=O)N[C@@H](CCC(N)=O)C(=O)NC(C)(C)C(=O)N[C@@H](CCC(=O)O)C(=O)N[C@@H](Cc1ccccc1)C(=O)N[C@H](C(=O)N[C@@H](CCC(=O)O)C(=O)N[C@@H](Cc1ccncc1)C(=O)N[C@@H](CC(C)C)C(=O)N[C@@H](CC(C)C)C(=O)N[C@@H](C)C(=O)N[C@@H](C)C(=O)NCC(=O)N1CCC[C@H]1C(=O)N[C@@H](CO)C(=O)N[C@@H](CO)C(=O)NCC(=O)N[C@@H](C)C(=O)N1CCC[C@H]1C(=O)N1CCC[C@H]1C(=O)N1CCC[C@H]1C(=O)N[C@@H](CO)C(N)=O)C(C)C)[C@@H](C)CC` [Example 59] yielded an EC50 [1] of over 5000 nM, an EC50 [2] of 0.0202 nM and an EC50 [3] of over 5000 nM.

Work on `CC[C@H](C)[C@H](NC(=O)[C@H](Cc1ccccc1)NC(=O)[C@@H](NC(=O)CNC(=O)[C@H](CCC(=O)O)NC(=O)C(C)(C)NC(=O)[C@@H](N)Cc1ccc(O)cc1)[C@@H](C)O)C(=O)N[C@@H](CO)C(=O)N[C@@H](CC(=O)O)C(=O)N[C@@H](Cc1ccc(O)cc1)C(=O)N[C@@H](CO)C(=O)N[C@H](C(=O)N[C@@](C)(CC(C)C)C(=O)N[C@@H](CC(C)C)C(=O)N[C@@H](CC(=O)O)C(=O)N[C@@H](CCCCN)C(=O)N[C@@H](CCCCNC(=O)COCCOCCNC(=O)COCCOCCNC(=O)CC[C@H](NC(=O)CCCCCCCCCCCCCCCCCCC(=O)O)C(=O)O)C(=O)N[C@@H](Cc1c[nH]cn1)C(=O)N[C@@H](CCC(N)=O)C(=O)NC(C)(C)C(=O)N[C@@H](CC(=O)O)C(=O)N[C@@H](Cc1ccccc1)C(=O)N[C@H](C(=O)N[C@@H](CCC(=O)O)C(=O)N[C@@H](Cc1ccncc1)C(=O)N[C@@H](CC(C)C)C(=O)N[C@@H](CC(C)C)C(=O)N[C@@H](C)C(=O)NCC(=O)NCC(=O)N1CCC[C@H]1C(=O)N[C@@H](CO)C(=O)N[C@@H](CO)C(=O)NCC(=O)N[C@@H](C)C(=O)N1CCC[C@H]1C(=O)N1CCC[C@H]1C(=O)N1CCC[C@H]1C(=O)N[C@@H](CO)C(N)=O)C(C)C)[C@@H](C)CC` [Example 48] yielded an EC50 [1] of 1360 nM, an EC50 [2] of 0.0166 nM and an EC50 [3] of over 5000 nM.

`CC[C@H](C)[C@H](NC(=O)[C@H](CO)NC(=O)[C@H](Cc1ccc(O)cc1)NC(=O)[C@H](CC(=O)O)NC(=O)[C@H](CO)NC(=O)[C@@H](NC(=O)[C@](C)(Cc1ccccc1F)NC(=O)[C@@H](NC(=O)CNC(=O)[C@H](CCC(=O)O)NC(=O)C(C)(C)NC(=O)[C@@H](N)Cc1ccc(O)cc1)[C@@H](C)O)[C@@H](C)CC)C(=O)N[C@@H](C)C(=O)N[C@@H](CC(C)C)C(=O)N[C@@H](CC(=O)O)C(=O)N[C@@H](CCCCN)C(=O)N[C@@H](CCCCNC(=O)COCCOCCNC(=O)COCCOCCNC(=O)CC[C@H](NC(=O)CCCCCCCCCCCCCCCCCCC(=O)O)C(=O)O)C(=O)N[C@@H](Cc1c[nH]cn1)C(=O)N[C@@H](CCC(N)=O)C(=O)NC(C)(C)C(=O)N[C@@H](CC(=O)O)C(=O)N[C@@H](Cc1ccccc1)C(=O)N[C@H](C(=O)N[C@@H](CCC(=O)O)C(=O)N[C@@H](Cc1ccncc1)C(=O)N[C@@H](CC(C)C)C(=O)N[C@@H](CC(C)C)C(=O)N[C@@H](CCC(=O)O)C(=O)NCC(=O)NCC(=O)N1CCC[C@H]1C(=O)N[C@@H](CO)C(=O)N[C@@H](CO)C(=O)NCC(=O)N[C@@H](C)C(=O)N1CCC[C@H]1C(=O)N1CCC[C@H]1C(=O)N1CCC[C@H]1C(=O)N[C@@H](CO)C(N)=O)C(C)C` [Example 39] (H-Y[Aib]EGT[αMePhe(2-F)]ISDYSIALDKK([AEEA-AEEA-γGlu-C20 diacid])HQ[Aib]DFVE[4Pal]LLEGGPSSGAPPPS-NH2) gave an EC50 [1] of over 5000 nM, an EC50 [2] of 0.0112 nM and an EC50 [3] of 3330 nM.
